Experimental data taken from article PMC1713233, “Implantation Serine Proteinases heterodimerize and are critical in hatching and implantation” (BMC Developmental Biology, 2006).
Where a name gives a salt, the structure may show the parent alone. Read-outs that look alike come from different tables or passages of the source. One block for each compound: values may come before it. Residues, ends and D or L forms follow the SMILES beside them. *: point of attachment. pNA = O=[N+]([O-])c1ccc(N*)cc1; Bz = O=C(c1ccccc1)*

What was measured:
ISP1-ISP2 enzyme complex [1] = target: T1, ISP1-ISP2 enzyme complex (Mus musculus, UniProt Q924N9+Q99MS4); assay: Inhibition of proteolytic activity of ISP enzyme complex, chromogenic assay with BAPNA as substrate; type: biochemical; conditions: for Affinity for ISP enzyme: Fig. 4B, compared to Benzamidine; for Ki: from IC50 by Cheng and Prusoff equation, read-out: Dissociation Constant (Ki); for Influence on ISP activity: general trypsin inhibitors
T1 construct: The native ISP enzyme complex was purified from mouse uterine tissue homogenates; from tissue; host or cells: uterus of pregnant CD1 mice (4.5-6.5 dpc)
T1 sequence (Q924N9 27-274): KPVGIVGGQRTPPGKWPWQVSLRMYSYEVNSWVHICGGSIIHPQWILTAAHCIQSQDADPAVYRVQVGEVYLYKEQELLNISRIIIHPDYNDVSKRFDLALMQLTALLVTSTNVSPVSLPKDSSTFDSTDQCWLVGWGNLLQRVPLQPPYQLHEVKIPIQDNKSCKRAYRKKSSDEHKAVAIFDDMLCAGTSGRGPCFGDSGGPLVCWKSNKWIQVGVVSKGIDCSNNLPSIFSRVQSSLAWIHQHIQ
T1 sequence (Q99MS4 18-279): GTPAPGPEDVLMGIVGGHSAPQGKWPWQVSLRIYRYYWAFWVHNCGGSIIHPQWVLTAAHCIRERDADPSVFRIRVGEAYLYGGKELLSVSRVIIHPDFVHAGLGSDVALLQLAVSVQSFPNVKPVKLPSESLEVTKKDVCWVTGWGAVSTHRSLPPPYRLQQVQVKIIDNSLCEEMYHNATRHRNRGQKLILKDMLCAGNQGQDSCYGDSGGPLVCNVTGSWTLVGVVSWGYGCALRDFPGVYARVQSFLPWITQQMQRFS
Experimental: Many general serine proteinase inhibitors were tested in order to identify suitable ISP inhibitors when BAPNA was used as a substrate. These included Benzamidine hydrochloride, 4-(Amidino-Phenyl)-Methane-Sulfonyl Fluoride (APMSF), L-1 Chloro-3- [4-tosyl-amido]-7-amino-2-heptanone. HCl (TLCK), Trypsin Soybean Inhibitor (TSI), Bis (5-amidino-2-benzimadozolyl) methane (BABIM), Gabexate mesylate, Nafamostat, and the kunitz family serpins Uterine Plasmin-Trypsin Inhibitor (UPTI) and Secretary Leukocyte proteinase inhibitor (SLPI).
Only inhibitors specific for trypsin-like serine proteinases were able to inhibit the ISPs (Fig. 4B and Additional file 2. Table 1). IC50 (concentration of an inhibitor capable of inhibiting the enzyme activity by 50%) values were obtained by plotting inhibition data, which were extrapolated into Cheng and Prusoff's equation to derive the dissociation constant (Ki).
(§1) Chromogenic assays were carried out using the p-Nitroanilide conjugated peptidic substrates. The reaction conditions used were: 4 mM BAPNA (substrate), in 25 mM Tris.Cl (pH 8.0) and 10 mM EDTA reaction buffer, in a total reaction volume of 0.5 mL. The reactions were carried out at room temperature in a glass cuvette (1 cm path length), and scanned at wavelength maxima of 405 nm using a spectrophotometer. 1 Unit of enzyme is defined as enzyme activity sufficient for the breakdown of 1 μM of substrate/ml/min. The affinity of ISP complex with various substrates was characterized by measuring enzyme activity at differing substrate concentrations and plotting enzyme activity [V] vs. substrate concentration [S]. The Km was calculated using the Michaelis Menton equation (Km = [S] at 1/2 Vmax).
IC50 values were derived by plotting enzyme activity (V) vs. inhibitor concentration [I]. Dissociation constants (Ki) values for different inhibitors were determined by using the Cheng and Prusoff equation (Ki = IC50/1 + [S]/Km).

embryo implantation = assay: Effect on pregnancy after injection into the uterine lumen; type: in vivo, CD1 mice; conditions: for # pregnant / # embryos: 10 ul of 10 mM per uterine horn at 2.5 dpc, examined at 7.5 dpc; for Rate (%) of pregnancy: rate of pregnancy in Controls assumed as 100%
Experimental: CD1 mice were obtained at the age of 6–8 weeks from Charles River Canada (St. Constant, Quebec) and maintained in a standard laboratory animal facility with controlled temperature (20°C), humidity and light cycle (lights on between 0700 and 1900 hr). The maintenance and treatment of animals was in full compliance with the Standard laboratory animal care protocols approved by the University of Calgary Animal Care Committee. To obtain natural pregnancies, female mice were paired with adult males and checked daily for the presence of vaginal copulatory plugs, as an indication of mating. The day of plug detection is designated as day 0.5 post coetum. For collection of uteri and embryos, pregnant dams were sacrificed on a specific day by cervical dislocation.
Uterine horns were exposed surgically whereupon inhibitor or anti-ISP antibodies were injected into the uterine lumen using the minimum possible volume (10 μl fluid was injected per horn). Since Gabexate was dissolved in normal saline, the control mice were injected with normal saline solution.

blastocysts = assay: In vitro embryo hatching; type: cell-based
Source text: In order to define a physiological role for the ISPs, the effect of inhibiting ISP activity upon embryo hatching, outgrowth (Fig. 6 and 7) and implantation (Table 1) was investigated. Blastocysts were first cultured in the presence or absence of anti-ISP mAbs or selected inhibitors. […] Similarly, the effect of varying concentrations of anti-ISP1 and anti-ISP2 mAbs was studied both individually and together (Fig. 7C, E and 7G).
(§2) Blastocysts were collected by flushing the uteri of day 3.5 post coetum dams with M2 (Sigma Aldrich and Co.) medium. For in vitro hatching experiments, blastocysts were cultured in micro drops of Knockout DMEM medium (Invitrogen) with serum replacement in a drop under mineral oil at 37°C and 5% CO2 [27]. For in vitro embryo outgrowth onto extracellular matrix, hatched blastocysts were cultured for an additional 48 h at 37°C and 5% CO2 in DMEM plus 5% (v/v) fetal bovine serum on […] Nunc tissue culture dishes coated with extracellular matrix derived from 10% Triton X-100 (v/v) treated mouse embryo fibroblasts. Inhibitors or anti-ISP mAbs were mixed into media at stated concentrations. For antibody inhibition experiments, anti-ISP hybridoma supernatants (or negative control supernatants) were mixed with embryo culture media at an appropriate concentration. For inhibitor experiments, negative controls contained the medium used to dispense Gabexate mesylate.

hatched blastocysts [2] = assay: In vitro embryo outgrowth onto extracellular matrix; type: cell-based; conditions: for Embryo death: 48 hrs
Source text: Implantation was simulated in vitro by growth of the hatched blastocysts in culture plates coated with the extracellular matrix derived from mouse embryonic fibroblasts, which can be invaded by outgrowing embryos (Fig. 6C and 6D). The effect of Gabexate on blastocyst outgrowth is also incremental with increasing concentration of Gabexate (Fig. 7B). […] A similar result was not observed for individual or combined mAbs, possibly owing to the abundance of ISP enzyme that occurs within the uterine fluid.
as §2

hatched blastocysts [3] = assay: as above; type: cell-based
ISP1-ISP2 enzyme complex [4] = target: T1, ISP1-ISP2 enzyme complex; assay: Substrate affinity (Km) of synthetic chromogenic substrates for ISP enzyme complex; type: biochemical; conditions: Km = [S] at 1/2 Vmax
Experimental: To determine the substrate specificity of the ISP complex and to classify it into a subclass of the S1 family of serine proteinases, enzyme assays were carried out using different p-nitroanilide linked peptide (1–3 mer) substrates. These included chymotrypsin-like (Tyr/Phe at cleavage (P1) site), trypsin-like (Arg/Lys at P1 position), elastase-like (Ala at P1 position), and subtilisin-like (Leu at P1 position) substrates. In order to compare affinity of specific substrates and derive Michaelis Menton constant (Km) values, the kinetic curves were plotted (substrate conc. [S] vs. rate of reaction [v]).
as §1

[5] = 4 mM BAPNA substrate, 25 mM Tris.Cl pH 8.0, room temperature, read-out: IC50%
[6] = Expt 06, 0.01 mM, 5 embryos/drop, control 4
[7] = Expt 06, 0.05 mM, 5 embryos/drop, control 4
[8] = Expt 06, 0.1 mM, 5 embryos/drop, control 4
[9] = Expt 07, 0.1 mM, 5 embryos/drop, control 6 of 6
[10] = Expt 07, 0.5 mM, 6 embryos/drop, control 6
[11] = Expt 04, 0.1 mM, 6 embryos/drop, control 6
[12] = Expt 04, 0.25 mM, 6 embryos/drop, control 6

Compound: CCOC(=O)c1ccc(OC(=O)CCCCCNC(=N)N)cc1 [Gabexate mesylate]
IC50 (ISP1-ISP2 enzyme complex [1]; [5]): 1.8 mM | Affinity for ISP enzyme (ISP1-ISP2 enzyme complex [1]): relatively high affinity | Ki (ISP1-ISP2 enzyme complex [1]; BAPNA substrate): 0.49 mM | Influence on ISP activity (ISP1-ISP2 enzyme complex [1]): inhibitory influence | # pregnant (embryo implantation; group 1, 11 mice, Control 1: 6 of 6): 1 | # embryos (embryo implantation; group 1, 11 mice, Control 1: 72): 2 | Rate (%) of pregnancy (embryo implantation; group 1): 2.8% | # pregnant (embryo implantation; group 2, 6 mice, Control 2: 4 of 4): 1 | # embryos (embryo implantation; group 2, 6 mice, Control 2: 22): 3 | Rate (%) of pregnancy (embryo implantation; group 2): 13.6% | Effect on embryo implantation in vivo (embryo implantation; injected into the uterine lumen at 2.5 dpc, compared with controls): rate of pregnancy drops to very low | Embryo death (blastocysts; CD1, mouse, 24 h, 0.1 mM): all died | Embryo death (blastocysts; CD1, mouse, 24 h, 0.5 mM): all died | Embryo death (blastocysts; CD1, mouse, 24 h, 2 mM): all died | Embryos hatched after 24 hrs. (blastocysts; Expt 05, 0.1 mM, 6 embryos/drop, control 6): 0 | Embryos hatched after 24 hrs. (blastocysts; Expt 05, 0.5 mM, 6 embryos/drop, control 6): 0 | Embryos hatched after 24 hrs. (blastocysts; Expt 05, 2.0 mM, 6 embryos/drop, control 6): 0 | Embryos hatched after 24 hrs. (blastocysts; [6]): 4 | Embryos hatched after 48 hrs. (blastocysts; [6]): 4 | Embryos hatched after 24 hrs. (blastocysts; [7]): 4 | Embryos hatched after 48 hrs. (blastocysts; [7]): 4 | Embryos hatched after 24 hrs. (blastocysts; [8]): 0 | Embryos hatched after 48 hrs. (blastocysts; [8]): 2 | Embryos hatched after 24 hrs. (blastocysts; [9]): 0 | Embryos hatched after 48 hrs. (blastocysts; [9]): 2 | Embryos hatched after 24 hrs. (blastocysts; [10]): 0 | Embryos hatched after 48 hrs. (blastocysts; [10]): 0 | Embryos hatched after 24 hrs. (blastocysts; Expt 08, 0.1 mM, 16 embryos/drop, control 4 of 17): 3 | Embryos hatched after 48 hrs. (blastocysts; Expt 08, 0.1 mM, 16 embryos/drop, control 12 of 17): 3 | Embryos hatched after 24 hrs. (blastocysts; Expt 08, 0.5 mM, 17 embryos/drop, control 4): 1 | Embryos hatched after 48 hrs. (blastocysts; Expt 08, 0.5 mM, 17 embryos/drop, control 12): 3 | Effect on in vitro embryo hatching (blastocysts; compared to controls): almost completely inhibited | Embryos outgrown after 48 hrs. (hatched blastocysts [2]; Experiment 03, 0.1 mM, 8 hatched embryos, control 5): 0 | Embryos outgrown after 48 hrs. (hatched blastocysts [2]; Experiment 03, 0.5 mM, 8 hatched embryos, control 5): 1 | Embryos outgrown after 48 hrs. (hatched blastocysts [2]; Experiment 04, 0.1 mM, 11 hatched embryos, control 6): 5 | Embryos outgrown after 48 hrs. (hatched blastocysts [2]; Experiment 04, 0.5 mM, 11 hatched embryos, control 6): 1 | Effect on in vitro embryo outgrowth (hatched blastocysts [2]; compared to controls): almost completely inhibited | Embryos outgrown after 72 hrs. (hatched blastocysts [3]; Experiment 03, 0.1 mM, 8 hatched embryos, control 7): 4 | Embryos outgrown after 72 hrs. (hatched blastocysts [3]; Experiment 03, 0.5 mM, 8 hatched embryos, control 7): 2 | Embryos outgrown after 72 hrs. (hatched blastocysts [3]; Experiment 04, 0.1 mM, 11 hatched embryos, control 9): 6 | Embryos outgrown after 72 hrs. (hatched blastocysts [3]; Experiment 04, 0.5 mM, 11 hatched embryos, control 9): 2

Compound: Cc1ccc(S(=O)(=O)N[C@@H](CCCCN)C(=O)CCl)cc1.Cl [TLCK, L-1-chloro-3[4-tosyl-amido]-7-amino-2-heptanone-HCl]
IC50 (ISP1-ISP2 enzyme complex [1]; [5]): 8 mM | Ki (ISP1-ISP2 enzyme complex [1]; BAPNA substrate): 2.18 mM | Influence on ISP activity (ISP1-ISP2 enzyme complex [1]): inhibitory influence

Km (ISP1-ISP2 enzyme complex [4]): 60 µM
Compound: CC(C)[C@H](NC(=O)[C@H](Cc1ccccc1)NC(=O)c1ccccc1)C(=O)N[C@@H](CCCN=C(N)N)C(=O)Nc1ccc([N+](=O)[O-])cc1 [BPVANA, N-Benzoyl-Phe-Val-Arg-pNA] (Bz-Phe-Val-Arg-pNA)

Compound: N=C(N)c1ccc(CS(=O)(=O)F)cc1 [APMSF, 4-(Amidino-Phenyl)-Methane-Sulfonyl Fluoride]
IC50 (ISP1-ISP2 enzyme complex [1]; [5]): 19.5 mM | Ki (ISP1-ISP2 enzyme complex [1]; BAPNA substrate): 5.31 mM | Influence on ISP activity (ISP1-ISP2 enzyme complex [1]): inhibitory influence

Compound: N=C(N)c1ccc2[nH]c(Cc3nc4cc(C(=N)N)ccc4[nH]3)nc2c1 [BABIM, Bis (5-amidino-2-benzimadozolyl) methane]
IC50 (ISP1-ISP2 enzyme complex [1]; [5]): 0.75 mM | Affinity for ISP enzyme (ISP1-ISP2 enzyme complex [1]): relatively high affinity | Ki (ISP1-ISP2 enzyme complex [1]; BAPNA substrate): 0.204 mM | Influence on ISP activity (ISP1-ISP2 enzyme complex [1]): inhibitory influence | Embryos hatched after 24 hrs. (blastocysts; [11]): 5 | Embryos hatched after 48 hrs. (blastocysts; [11]): 6 | Embryos hatched after 24 hrs. (blastocysts; [12]): 1 | Embryos hatched after 48 hrs. (blastocysts; [12]): 1 | Embryo death (blastocysts; Expt 04, 0.5 mM, 6 embryos/drop, 24 hrs): all died | Embryos hatched after 24 hrs. (blastocysts; Expt 04, 0.5 mM, 6 embryos/drop, control 6): 0

IC50 (ISP1-ISP2 enzyme complex [1]; BAPNA substrate, no effect up to stated concentration, read-out: IC50% (No effect up to)): > 500 mM
Compound: UPTI: rPorcine Uterine Plasmin Trypsin Inhibitor

Compound: N=C(N)c1ccccc1 [Benzamidine hydrochloride]
Ki (ISP1-ISP2 enzyme complex [1]; BAPNA substrate): 44.3 mM | Influence on ISP activity (ISP1-ISP2 enzyme complex [1]): inhibitory influence | Embryo death (blastocysts; Expt 01, 50 mM, 12 embryos/drop, 24 hrs): all died | Embryos hatched after 24 hrs. (blastocysts; Expt 01, 50 mM, 12 embryos/drop, control 9): 0 | Embryo death (blastocysts; Expt 02, 20 mM, 10 embryos/drop, 24 hrs): all died | Embryos hatched after 24 hrs. (blastocysts; Expt 02, 20 mM, 10 embryos/drop, control 5): 0 | Embryos hatched after 24 hrs. (blastocysts; Expt 03, 0.5 mM, 11 embryos/drop, control 5): 3 | Embryos hatched after 48 hrs. (blastocysts; Expt 03, 0.5 mM, 11 embryos/drop, control 10): 4 | Embryos hatched after 24 hrs. (blastocysts; Expt 03, 1 mM, 11 embryos/drop, control 5): 4 | Embryos hatched after 48 hrs. (blastocysts; Expt 03, 1 mM, 11 embryos/drop, control 10): 7 | Embryos hatched after 24 hrs. (blastocysts; Expt 03, 4 mM, 11 embryos/drop, control 5): 2 | Embryos hatched after 48 hrs. (blastocysts; Expt 03, 4 mM, 11 embryos/drop, control 10): 2 | Embryo death (hatched blastocysts [2]; Experiment 01, 50 mM, 12 hatched embryos): all died | Embryos outgrown after 48 hrs. (hatched blastocysts [2]; Experiment 01, 50 mM, 12 hatched embryos, control 9): 0 | Embryo death (hatched blastocysts [2]; Experiment 02, 4 mM, 10 hatched embryos): all died | Embryos outgrown after 48 hrs. (hatched blastocysts [2]; Experiment 02, 4 mM, 10 hatched embryos, control 10): 0
